A value given as a limit tells only on which side of the number the result lay.

Broadly, the IC50 is the concentration that gives 50% inhibition.

The test has as its target NaV 1.8 channel (Homo sapiens, UniProt Q9Y5Y9). The test can be described thus: Activity against NaV 1.8 channel (optical membrane potential assay). It counts as cell-based. As to the method: Compounds of the invention are useful as antagonists of voltage-gated sodium ion channels. Antagonist properties of test compounds were assessed as follows. Cells expressing the NaV of interest were placed into microtiter plates. After an incubation period, the cells were stained with fluorescent dyes sensitive to the transmembrane potential. The test compounds were added to the microtiter plate. The cells were stimulated with either a chemical or electrical means to evoke a NaV dependent membrane potential change from unblocked channels, which was detected and measured with trans-membrane potential-sensitive dyes. Antagonists were detected as a decreased membrane potential response to the stimulus. The optical membrane potential assay utilized voltage-sensitive FRET sensors described by Gonzalez and Tsien (See, Gonzalez, J. E. and R. Y. Tsien (1995) “Voltage sensing by fluorescence resonance energy transfer in single cells” Biophys J 69(4): 1272-80, and Gonzalez, J. E. and R. Y. Tsien (1997) “Improved indicators of cell membrane potential that use fluorescence resonance energy transfer” Chem Biol 4(4): 269-77) in combination with instrumentation for measuring fluorescence changes such as the Voltage/Ion Probe Reader (VIPR®) (See, Gonzalez, J. E., K. Oades, et al. (1999) “Cell-based assays and instrumentation for screening ion-channel targets” Drug Discov Today 4(9): 431-439).
24 hours before the assay on VIPR, CHO cells endogenously expressing a NaV1.2 type voltage-gated NaV are seeded in 96-well poly-lysine coated plates at 60,000 cells per well. Other subtypes are performed in an analogous mode in a cell line expressing the NaV of interest. • 1) On the day of the assay, medium is aspirated and cells are washed twice with 225 μL of Bath Solution #2 (BS#2). • 2) A 15 uM CC2-DMPE solution is prepared by mixing 5 mM coumarin stock solution with 10% Pluronic 127 1:1 and then dissolving the mix in the appropriate volume of BS#2. • 3) After bath solution is removed from the 96-well plates, the cells are loaded with 80 μL of the CC2-DMPE solution. Plates are incubated in the dark for 30 minutes at room temperature. • 4) While the cells are being stained with coumarin, a […] solution in BS#2 is prepared. In addition to DiSBAC2(3), this solution should contain 0.75 mM ABSCl and […] (prepared from 10 mM EtOH stock, Sigma #V-5754). • 5) After 30 minutes, CC2-DMPE is removed and the cells are washed twice with 225 μL of BS#2. As before, the residual volume should be 40 μL. • 6) Upon removing the bath, the cells are loaded with 80 μL of the DiSBAC2(3) solution, after which test compound, dissolved in DMSO, is added to achieve the desired test concentration to each well from the drug addition plate and mixed thoroughly. The volume in the well should be roughly 121 μL. The cells are then incubated for 20-30 minutes. • 7) Once the incubation is complete, the cells are ready to be assayed on VIPR® with a sodium add back protocol. 120 μL of Bath solution #1 is added to stimulate the NaV dependent depolarization. […] was used as an antagonist positive control for block of the NaV channel.
Data are analyzed and reported as normalized ratios of background-subtracted emission intensities measured in the 460 nm and 580 nm channels. Background intensities are then subtracted from each assay channel. Background intensities are obtained by measuring the emission intensities during the same time periods from identically treated assay wells in which there are no cells. The response as a function of time is then reported as the ratios obtained using the following formula: […]
The data is further reduced by calculating the initial (Ri) and final (Rf) ratios. These are the average ratio values during part or all of the pre-stimulation period, and during sample points during the stimulation period. The response to the stimulus R=Rf/Ri is then calculated. […]

Sequence of NaV 1.8 channel (Q9Y5Y9 whole entry): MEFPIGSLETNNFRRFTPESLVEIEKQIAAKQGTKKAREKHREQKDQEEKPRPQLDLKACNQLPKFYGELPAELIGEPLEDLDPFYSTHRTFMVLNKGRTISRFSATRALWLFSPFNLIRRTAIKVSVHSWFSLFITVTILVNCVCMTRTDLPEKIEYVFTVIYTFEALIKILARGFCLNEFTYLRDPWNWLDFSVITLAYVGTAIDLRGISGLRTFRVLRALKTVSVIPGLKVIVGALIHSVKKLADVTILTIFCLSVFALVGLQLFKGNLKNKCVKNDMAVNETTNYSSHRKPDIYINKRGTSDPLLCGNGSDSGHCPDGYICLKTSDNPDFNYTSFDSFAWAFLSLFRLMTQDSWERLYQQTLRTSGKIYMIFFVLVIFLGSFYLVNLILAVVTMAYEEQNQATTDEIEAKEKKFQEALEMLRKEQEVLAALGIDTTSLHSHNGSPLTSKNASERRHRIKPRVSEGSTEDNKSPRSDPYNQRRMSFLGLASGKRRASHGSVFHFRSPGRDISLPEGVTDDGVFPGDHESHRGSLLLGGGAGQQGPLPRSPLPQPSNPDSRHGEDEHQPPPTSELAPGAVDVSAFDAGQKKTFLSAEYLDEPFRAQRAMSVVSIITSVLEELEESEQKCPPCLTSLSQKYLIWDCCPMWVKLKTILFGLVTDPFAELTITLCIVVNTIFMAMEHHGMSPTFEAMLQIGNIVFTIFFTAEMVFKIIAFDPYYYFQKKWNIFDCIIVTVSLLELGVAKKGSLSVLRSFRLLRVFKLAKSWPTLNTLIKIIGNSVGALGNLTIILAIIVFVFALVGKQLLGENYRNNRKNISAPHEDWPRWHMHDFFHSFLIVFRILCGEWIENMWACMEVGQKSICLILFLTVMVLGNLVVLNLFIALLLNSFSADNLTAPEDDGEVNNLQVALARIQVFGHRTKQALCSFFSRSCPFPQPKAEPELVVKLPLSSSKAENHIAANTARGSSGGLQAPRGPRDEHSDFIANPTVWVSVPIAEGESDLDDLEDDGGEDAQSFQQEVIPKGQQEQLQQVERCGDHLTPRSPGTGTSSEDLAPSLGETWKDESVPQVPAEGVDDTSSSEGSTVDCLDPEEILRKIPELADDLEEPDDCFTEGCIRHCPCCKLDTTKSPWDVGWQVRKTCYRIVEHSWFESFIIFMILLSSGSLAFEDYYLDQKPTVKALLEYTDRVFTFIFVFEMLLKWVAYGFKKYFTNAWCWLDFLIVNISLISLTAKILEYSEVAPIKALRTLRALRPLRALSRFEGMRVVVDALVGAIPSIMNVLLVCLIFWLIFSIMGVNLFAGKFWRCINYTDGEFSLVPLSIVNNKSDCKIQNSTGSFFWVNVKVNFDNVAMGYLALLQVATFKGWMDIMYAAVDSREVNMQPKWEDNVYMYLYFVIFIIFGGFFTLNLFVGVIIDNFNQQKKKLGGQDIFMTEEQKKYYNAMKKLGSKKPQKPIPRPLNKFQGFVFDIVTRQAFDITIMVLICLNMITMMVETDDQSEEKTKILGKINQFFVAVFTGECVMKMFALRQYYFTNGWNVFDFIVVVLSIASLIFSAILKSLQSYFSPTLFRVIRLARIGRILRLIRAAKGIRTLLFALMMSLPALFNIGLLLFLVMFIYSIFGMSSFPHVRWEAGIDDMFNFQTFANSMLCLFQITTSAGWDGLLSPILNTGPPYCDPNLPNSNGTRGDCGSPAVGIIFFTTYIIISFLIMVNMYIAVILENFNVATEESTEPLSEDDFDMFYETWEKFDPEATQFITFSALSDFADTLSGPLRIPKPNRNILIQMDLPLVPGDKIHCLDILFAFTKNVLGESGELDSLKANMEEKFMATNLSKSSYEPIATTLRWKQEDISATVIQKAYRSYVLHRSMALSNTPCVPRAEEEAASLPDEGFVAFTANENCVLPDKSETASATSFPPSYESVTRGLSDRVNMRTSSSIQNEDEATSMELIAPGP

With `Cc1ccc2c(N3CCN(C(=O)OCC(C)(C)C)CC3)nc(-c3ccccc3O)nc2c1` [Example 197], the IC50 was under 2 µM.
Under `Cc1ccc2c(N3CC(C(=O)NCc4cccnc4)C3)nc(-c3ccccc3O)nc2c1` [Example 402, 1-(2-(2-Hydroxyphenyl)-7-methylquinazolin-4-yl)-N-((pyridin-3-yl)methyl)azetidine-3-carboxamide] stands over 10 µM; under `Cc1ccc2c(N3CC[C@@H](NC(=O)O[C@H]4CCOC4)C3)nc(-c3ccccc3O)nc2c1` [Example 301, (S)-Tetrahydrofuran-3-yl (R)-1-(2-(2-hydroxyphenyl)-7-methylquinazolin-4-yl)pyrrolidin-3-ylcarbamate], 2 to 10 µM.
With `Cc1ccc2c(N3CC[C@H](CNC(=O)O[C@@H]4CCOC4)C3)nc(-c3ccccc3O)nc2c1` [Example 306, (R)-Tetrahydrofuran-3-yl ((R)-1-(2-(2-hydroxyphenyl)-7-methylquinazolin-4-yl)pyrrolidin-3-yl)methylcarbamate] the figure was over 10 µM.
With `Cc1ccc2c(N3CCN(C(=O)OCc4cccc5c4OCO5)CC3)nc(-c3ccccc3O)nc2c1` [Example 103, (Benzo[d][1,3]dioxol-7-yl)methyl 4-(2-(2-hydroxyphenyl)-7-methylquinazolin-4-yl)piperazine-1-carboxylate] the figure was over 10 µM; with `Cc1ccc2c(N3CCC(NC(=O)CC4CCOCC4)CC3)nc(-c3ccccc3O)nc2c1` [Example 221, 2-(Tetrahydro-2H-pyran-4-yl)-N-(1-(2-(2-hydroxyphenyl)-7-methylquinazolin-4-yl)piperidin-4-yl)acetamide], over 10 µM.
On to `Cc1ccc2c(N3CC[C@@H](CNC(=O)OC(C)C)C3)nc(-c3c(O)cccc3F)nc2c1` [Example 371, Isopropyl ((S)-1-(2-(2-fluoro-6-hydroxyphenyl)-7-methylquinazolin-4-yl)pyrrolidin-3-yl)methylcarbamate], for which the IC50 was under 2 µM.
Under `CC(C)C[C@@H](O)C(=O)N1CCN(c2nc(-c3ccccc3O)nc3ccc(C#N)cc23)CC1` [Example 142, 4-[4-((R)-2-Hydroxy-4-methyl-pentanoyl)-piperazin-1-yl]-2-(2-hydroxy-phenyl)-quinazoline-6-carbonitrile] stands 2 to 10 µM; under `Cc1ccc2c(N3CCC(NC(=O)OC(C)(C)C)CC3)nc(-c3ccccc3O)nc2c1` [Example 259, {1-[2-(2-Hydroxy-phenyl)-7-methyl-quinazolin-4-yl]-piperidin-4-yl}-carbamic acid tert-butyl ester], under 2 µM; under `Cc1ccc2c(N3CCC(NC(=O)[C@H](O)CC(C)(C)C)CC3)nc(-c3c(O)cccc3F)nc2c1` [Example 249, (2R)—N-(1-(2-(2-Fluoro-6-hydroxyphenyl)-7-methylquinazolin-4-yl)piperidin-4-yl)-2-hydroxy-4,4-dimethylpentanamide], 2 to 10 µM.
As for `Cc1ccc2c(N3CCN(C(=O)[C@H](O)CC(C)C)CC3CO)nc(-c3ccccc3O)nc2c1` (stereo partly drawn) [Example 172, (R)-2-Hydroxy-1-{3-hydroxymethyl-4-[2-(2-hydroxy-phenyl)-7-methyl-quinazolin-4-yl]-piperazin-1-yl}-4-methyl-pentan-1-one], the IC50 was over 10 µM.
With `CCCCC(O)C(=O)NC1CCN(c2nc(-c3ccccc3O)nc3ccccc23)CC1` (centres unmarked) [Example 238, 2-Hydroxy-N-(1-(2-(2-hydroxyphenyl)quinazolin-4-yl)piperidin-4-yl)hexanamide] the figure was over 10 µM; with `Cc1ccc2c(N3CCN(C(=O)C(O)C(C)C)CC3)nc(-c3ccccc3O)nc2c1` (centres unmarked) [Example 113, 2-Hydroxy-1-(4-(2-(2-hydroxyphenyl)-7-methylquinazolin-4-yl)piperazin-1-yl)-3-methylbutan-1-one], 2 to 10 µM.
As to `Cc1ccc2c(N3CCN(C(=O)OCC4CCOC4)CC3)nc(-c3ccccc3O)nc2c1` (centres unmarked) [Example 184], the IC50 was 2 to 10 µM.
Under `Cc1ccc2c(N3CCC(CNC(=O)[C@H](O)C(C)C)CC3)nc(-c3ccccc3O)nc2c1` [Example 269] stands over 10 µM; under `Cc1ccc2c(N3CCN(C(=O)O[C@H]4CCOC4)CC3CO)nc(-c3ccccc3O)nc2c1` (stereo partly drawn) [Example 119, (S)-3-Hydroxymethyl-4-[2-(2-hydroxyphenyl)-7-methyl-quinazolin-4-yl]-piperazine-1-carboxylic acid tetrahydro-furan-3-yl ester], over 10 µM.
Take `Cc1ccc2c(N3CCC(NC(=O)[C@H](O)CC(C)(C)C)CC3)nc(-c3ccccc3O)nc2c1` [Example 232, (2R)-2-Hydroxy-N-(1-(2-(2-hydroxyphenyl)-7-methylquinazolin-4-yl)piperidin-4-yl)-4,4-dimethylpentanamide]: the half-maximal inhibitory concentration (IC50) lay within 2 to 10 µM.
Under `Cc1ccc2c(N3CCC(NC(=O)O[C@@H]4CO[C@H]5OCC[C@H]54)CC3)nc(-c3ccccc3O)nc2c1` [Example 280] stands 2 to 10 µM; under `Cc1ccc2c(N3CC[C@@H](CNC(=O)OCC(C)(C)C)C3)nc(-c3ccccc3O)nc2c1` [Example 369, Neopentyl ((S)-1-(2-(2-hydroxyphenyl)-7-methylquinazolin-4-yl)pyrrolidin-3-yl)methylcarbamate], under 2 µM; under `Cc1ccc2c(N3CC(NC(=O)OCC4CCOC4)C3)nc(-c3ccccc3O)nc2c1` (centres unmarked) [Example 416], over 10 µM.
In the case of `O=C(CC1CCOCC1)N[C@@H]1CCN(c2nc(-c3ccccc3O)nc3ccc(F)cc23)C1` [Example 338, N—((R)-1-(6-Fluoro-2-(2-hydroxyphenyl)quinazolin-4-yl)pyrrolidin-3-yl)-2-(tetrahydro-2H-pyran-4-yl)acetamide], the IC50 is over 10 µM.
With `Cc1ccc2c(N3CCC(NC(=O)CCc4ccccn4)CC3)nc(-c3ccccc3O)nc2c1` [Example 223, N-(1-(2-(2-Hydroxyphenyl)-7-methylquinazolin-4-yl)piperidin-4-yl)-3-(pyridin-2-yl)propanamide] the figure was over 10 µM; with `O=C(CC1CCOCC1)N1CCN(c2nc(-c3ccccc3O)nc3ccc(F)cc23)CC1` [Example 128, 1-(4-(6-Fluoro-2-(2-hydroxyphenyl)quinazolin-4-yl)piperazin-1-yl)-2-(tetrahydro-2H-pyran-4-yl)ethanone], 2 to 10 µM.
On to `Cc1ccc2c(N3CCC(NC(=O)CCc4cccnc4)CC3)nc(-c3ccccc3O)nc2c1` [Example 225, N-{1-[2-(2-Hydroxy-phenyl)-7-methyl-quinazolin-4-yl]-piperidin-4-yl}-3-pyridin-3-yl-propionamide], for which the IC50 was over 10 µM.
Under `Cc1ccc2c(N3CCC(NC(=O)[C@H](O)CC(C)C)CC3)nc(-c3ccccc3O)nc2c1` [Example 267] stands over 10 µM; under `CCC(C)(O)CC(=O)N1CCN(c2nc(-c3ccccc3O)nc3cc(C)ccc23)CC1` (centres unmarked) [Example 181], over 10 µM; under `Cc1ccc2c(N3CCCC(CNC(=O)OCC(C)C)C3)nc(-c3ccccc3O)nc2c1` (centres unmarked) [Example 250, Isobutyl (1-(2-(2-hydroxyphenyl)-7-methylquinazolin-4-yl)piperidin-3-yl)methylcarbamate], under 2 µM.
With `CCCOC(=O)NC[C@@H]1CCCN(c2nc(-c3ccccc3O)nc3cc(C)ccc23)C1` [Example 256, Propyl ((S)-1-(2-(2-hydroxyphenyl)-7-methylquinazolin-4-yl)piperidin-3-yl)methylcarbamate], the IC50 is 2 to 10 µM.
Take `O=C(OCC1CCCCO1)N1CCN(c2nc(-c3ccccc3O)nc3ccc(F)cc23)CC1` (centres unmarked) [Example 160, (Tetrahydro-2H-pyran-2-yl)methyl 4-(6-fluoro-2-(2-hydroxyphenyl)quinazolin-4-yl)piperazine-1-carboxylate]: the IC50 was over 10 µM.

(Values after US7928107B2, “Quinazolines useful as modulators of ion channels” (Vertex Pharmaceuticals Incorporated, priority 2004, dated 2011).)
